Measurements reported in patent EP1976842B1 (priority 2006, dated 2007).
Like-named read-outs stand apart in the source and are kept apart here.

Target: T1, alpha7 nAChR (Rattus norvegicus, UniProt Q05941)
T1 construct: expressed in transfected cells
Assay: cell-based
Text: Rat GH4C1 cells were then transfected with the rat receptor, cloned and analyzed for functional alpha7 nicotinic receptor expression employing a FLIPR assay to measure changes in intracellular calcium concentrations.
The FLIPR system allows the measurements of real time Ca^2+-concentration changes in living cells using a Ca^2+ sensitive fluorescence dye (such as Fluo4). This instrument enables the screening for agonists and antagonists for alpha 7 nAChR channels stably expressed in GH4Cl cells.
GH4Cl cells stably transfected with rat- alpha7-nAChR (see above) were used. These cells are poorly adherent and therefore pretreatment of flasks and plates with poly-D-lysine was carried out. Cells are grown in 150 cm^2 T-flasks, filled with 30 ml of medium at 37°C and 5% CO2.
EC50 and IC50 values were calculated using the IDBS XLfit4.1 software package employing a sigmoidal concentration-response (variable slope) equation: Y = Bottom + ((Top-Bottom)/(1+(((EC50/X))^(∧)⁢HillSlope)). [formula]
The compounds were tested using the functional FLIPR primary screening assay employing the stable recombinant GH4C1 cell line expressing the alpha7 nAChR. Hits identified were validated further by generation of concentration-response curves.

T1 sequence (Q05941 23-502): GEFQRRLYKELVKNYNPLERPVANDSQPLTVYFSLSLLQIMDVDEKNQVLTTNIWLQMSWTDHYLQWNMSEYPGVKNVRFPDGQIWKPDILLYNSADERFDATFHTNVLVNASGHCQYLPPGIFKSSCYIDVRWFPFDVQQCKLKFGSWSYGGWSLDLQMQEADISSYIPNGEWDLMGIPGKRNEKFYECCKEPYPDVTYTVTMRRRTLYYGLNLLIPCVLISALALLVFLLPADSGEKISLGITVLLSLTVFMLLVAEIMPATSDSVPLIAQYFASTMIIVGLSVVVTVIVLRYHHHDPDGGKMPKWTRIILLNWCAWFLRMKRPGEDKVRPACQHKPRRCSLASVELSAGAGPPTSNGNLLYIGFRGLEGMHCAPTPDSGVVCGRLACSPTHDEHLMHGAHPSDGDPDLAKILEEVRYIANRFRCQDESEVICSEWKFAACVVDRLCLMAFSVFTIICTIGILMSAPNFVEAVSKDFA

## C[N+](C)(C)CCO [Choline, choline]
  EC50: 24.2 ± 8.3 µM

## O=c1cccc2n1C[C@@H]1CNC[C@H]2C1 [Cytisine, cytisine]
  EC50: 1.21 ± 0.13 µM

## C[N+]1(C)CCN(c2ccccc2)CC1 [DMPP]
Agonist concentration-response, 0.001 to 30 microM, alpha7 nAChR stably expressed in GH4C1 cells, read-out: EC50
  EC50: 0.98 ± 0.47 µM
